Laboratory results published in US6583132B1, “Oxidant scavengers” (Duke University, priority 1993, dated 2003).

Key:
rat cortical cells = experiment: Neurotoxicity (LDH release) in cortical cell culture; format: cell-based; details: for NMDA-induced LDH release: 1 mM NOS inhibitor
Description: (§1) Tissue culture: Mixed neuronal and glial cultures were prepared from embryonic day-18 rat cerebral cortices (Sprague-Dawley, Zivic Miller). Briefly, the cerebral cortices were dissected and enzymatically dissociated by incubation in Ca^++-, Mg^++-free Hank's balanced salt solution (HBSS) supplemented with 10 mM HEPES and 0.25% trypsin for 20 min. at 37° C. The tissue was rinsed and dispersed into single cell suspension by gentle passage through a fire polished Pasteur pipette. The cell suspension was centrifuged and resuspended in Minimum Essential Media (MEM), containing Earle's salts supplemented with 3 g/L glucose, 5% horse serum and 5% fetal bovine serum (growth media). The cells were plated in poly-D-lysine-coated multi-well plates: 12-well plates for aconitase measurement, and 24 well plates for toxicity experiments. Cells were maintained at 37° C. in a humidified incubator with 5% CO2/95% air in growth media. Media was not replaced so as to reduce glial overgrowth and neuronal loss. Mature cells (14-17 days in vitro) were used for all experiments.
(§2) Cell treatment: The growth media was replaced with MEM supplemented with 25 mM glucose (MEM-g). For both neurotoxicity studies and aconitase measurement, cells were incubated in the designated treatment for the indicated length of time at 37° C. Unless otherwise specified, antagonists or SOD-mimetics were added 15 min. prior to agonists. For measurement of neurotoxicity, cells were incubated with treatments for 18 hr at 37° C. in MEM-g. To access the ability of antagonists to inhibit acute NMDA toxicity or rescue cells from an ongoing NMDA insult, an alternate paradigm of NMDA treatment was used in addition to the one describe above. In this paradigm, growth media was replaced with HBSS^+ (Ca^++-, Mg^++-free Hank's Balanced Salt Solution supplemented with 2 mM CaCl2, 1 mM NaHCO3, 10 mM HEPES and 5 μM glycine), cells were treated with vehicle or 100 μM NMDA for 15 min. after which HBSS^+ was replaced with MEM-g and cells were returned to the incubator for 18 additional hrs. Antagonsists or SOD-mimetics were added to the cells 15 min. before NMDA exposure or 15, 30 or 60 min. following final media replacement. For determination of Ca^++-dependence, cells were incubated in HBSS^+ with no added Ca^++. When kainate (KA) was used as an agonist, 100 μM D-APV was routinely included to block secondary NMDA receptor activation. Catalase (100 U/ml) was always included when xanthine plus xanthine oxidase (X+XO) was used as a treatment to rule out the contribution of hydrogen peroxide.
Neurotoxicity studies: Neurotoxicity was determined by the measurement of LDH released in the supernatant media as previously described (Patel et al, Toxicol. Appl. Pharmacol. 115:124 (1991) and Neurotoxicology 14:35 (1992)). LDH was measured by the method of Vassault, Lactate dehydrogenase. In: Methods of Enzymatic Analysis, Bergmeyer HU (ed), Verlag Chemie, Weinheim, pp. 118-126 (1983). Additionally, cell death was confirmed with ethidium-1 homodimer (EthD-1). Briefly, the cells were washed with HBSS, loaded with 20 μM EthD-1 for 30 min,. rinsed and viewed through fluorescence optics. The number of dead cells labeled with EthD-1 were counted in 4-6 randomly selected fields, the numbers averaged to give an estimate of cell death and the experiment was repeated 3 times.

Cold-induced brain edema = format: in vivo, mice; details: for Edema Index: mean ± standard error; for less edema formation compared to saline treated controls: pretreatment i.p.
Description: Injury model: Young (6-7 week) mice (see Example I) were anesthetized with 60 mg/kg pentobarbital (Nembutal, Abbott Laboratories, Chicago, Ill.). An incision was then made in the scalp and a steel rod 20 cm long, 3 mm in diameter, equilibrated in liquid nitrogen with an 8 cm bath of liquid nitrogen 4 cm from the end of the rod, was placed on the skull over the right cerebral hemisphere for 30 seconds. The skin incision was then sutured.
Two hours after the injury the mouse was given an additional dose of pentobarbital. The chest cavity was opened, the lungs were excised, and the mouse was then perfused with 20 ml saline through the left ventricle of the heart. The brain was then removed and the cerebellum was excised. The right (R) and left (L) cerebral hemispheres were separated and immediately weighed (wet weight, W). Each hemisphere was then dried at 70° C. for 2-3 days in a hot air oven until a constant weight was achieved (dry weight, D). An index of edema (I) was then calculated as shown in equation 13.
I=(W/D R−W/DL)/(W/DL)×100 [13]
Chemical treatments: Six groups of experiments were conducted to investigate the importance of extracellular superoxide, iron, and nitric oxide in cold-induced brain edema. In all groups, drugs were dissolved in saline and injected at 0.008 cc/g 15 minutes prior to cold injury. In Group 1, edema formation of EC-SOD transgenic mice was compared with that of nontransgenic littermates. Group 2 compared edema formation between wild-type (C57BL/6×C3H)F1 mice treated with saline and (C57BL/6×C3H)F1 mice treated with 0.33 mg/g deferoxamine (0.51 μmoles/g). Group 3 compared (C57BL/6×C3H)F1 mice treated with saline to (C57BL/6×C3H)F1 mice treated with 0.51 μmoles/g Fe^3÷− saturated deferoxamine. Group 4 consisted of (C57BL/6×C3H)F1 mice treated with saline and (C57BL/6×C3H)F1 mice treated with 0.02 mg/g N-ω-nitro-L-arginine methyl ester. Group 5 consisted of (C57BL/6×C3H)F1 mice treated with saline and (C75BL/6×C3H)F1 mice treated with 0.02 mg/g N-ω-nitro-L-arginine methyl ester plus 0.05 mg/g L-arginine. Group 6 compared edema formation between nontransgenic mice, EC-SOD transgenic mice treated with saline, and EC-SOD transgenic mice treated with 0.02 mg/g N-ω-nitro-L-arginine methyl ester.
Iron saturated deferoxamine was made by dissolving equimolar amounts of deferoxamine and then ferric chloride in saline. Saturation of deferoxamine with ferric iron was determined spectrophotometrically be measuring the absorbance at 425 nm (ε=2500 M^−1 cm^−1 for Fe3+-deferoxamine) (Monzyk and Crumbliss, J. Amer. Chem. Soc. 104:4921 (1982)).

aconitase = experiment: Aconitase activity in cortical cell lysates; format: cell-based, rat; details: for decrease in aconitase activity: PQ^++ 3 hrs, NMDA 1 hr, KA 6 hrs; for NMDA-induced aconitase inactivation: 1 mM NOS inhibitor
Description: as §1, §2
Aconitase measurement: For the measurement of aconitase, following treatment with agents, media was removed and cells lysed in ice-cold 50 mM, Tris/HCl, pH 7.4 containing 0.6 mM MnCl2, 1 mM L-cysteine, 1 mM citrate and 0.5% Triton-X 100. The aconitase activity of cell lysates was measured spectrophotometrically by monitoring the formation of cis-aconitate from isocitrate at 240 nm in 50 mM Tris/HCl, pH 7.4, containing 0.6 mM MnCl2 and 20 mM isocitrate at 25° C. (Kreb and Holzach, Biochem. J. 52:527 (1952); Gardner and Fridovich, J. Biol. Chem. 267:8757 (1992)). […] Aconitase activity in cortical cell lysates was inhibited by 0.1 mM potassium ferricyanide or by boiling of sample.

[1] = CNS oxygen toxicity, 6 ATA hyperbaric oxygen exposure; format: in vivo, mice; details: for Survival: 6 ATA oxygen 25 minutes, DDC 400 mg/kg i.p. or LNNA 20 mg/kg i.p.
Description: Oxygen exposures: 7-8 week old mice were exposed to hyperbaric oxygen five at a time in a small-animal chamber (Bethlehem, Pa.). After flushing the chamber with pure oxygen, compression to 50 meters (6 ATA) was performed within 5 minutes. The oxygen concentration in the chamber was monitored continuously with a Servomex oxygen analyzer (model 572, Sybron, Norwood, Mass.) and maintained at ≳99%. The carbon dioxide concentration was analyzed from intermittent samples of chamber gas with an IR detector (IR Industries, Santa Barbara, Calif.) and was not allowed to rise above 0.1%. The chamber temperature was maintained at 25-26° C., but the compression of oxygen in the chamber raised the temperature to 30-32° C. transiently, but an environmental control system restored the normal chamber temperature within 3 minutes. […] The mice were observed continuously for signs of oxygen toxicity from the beginning of the exposure until 4 hours after removal from the chamber. The time to the first generalized convulsion (seizure latency) and the time to death were recorded. These exposure conditions are designed to cause CNS oxygen toxicity without appreciable evidence of pulmonary oxygen toxicity.
Treatment with diethyldithiocarbamate: One hour prior to exposure to 6 ATA oxygen, mice were given either i.p. injections of either 0.008 cc/g saline or 400 mg/kg diethyldithiocarbamate dissolves in normal saline (0.008 cc/g). The mice were then exposed to 6 ATA oxygen for 25 minutes as described above.
Treatment with β-mercaptoethanol: One hour prior to exposure to 6 ATA oxygen, mice were given either i.p. injections of 0.008 cc/g saline or 180 mg/kg β-mercaptoethanol (0.008 cc/g). This dose of β-mercaptoethanol was selected because it contains an equal number of reducing thiols as the dose of diethyldithiocarbamate. The mice were then exposed to 6 ATA oxygen for 30 minutes as described above.
Treatment with N-ω-nitro-L-arginine, an inhibitor of nitric oxide synthase: Ten minutes prior to beginning compression, 0.008 cc/g saline or 20 mg/kg (0.008 cc/g) N-ω-nitro-L-arginine dissolved in sterile water was given i.p to the transgenic and nontransgenic mice. Mice were then exposed at 6 ATA oxygen for 25 or 75 minutes as described above.

J774 macrophages = experiment: Mitochondrial respiration (MTT) in J774 macrophages; format: cell-based; details: IFN alone, 10 U/ml
Description: Cell culture: J774 macrophages were cultured in DMEM medium, supplemented with L-glutamine (3.5 mmol/L) and 10% fetal calf serum. Cells were cultured in 96-well plates (200 μl medium/well) until confluence. To induce the inducible isoform of nitric oxide synthase (iNOS), fresh culture medium containing E. coli LPS (011:B4, 10 μg/ml) alone or in combination with murine γ-interferon (γ-IFN, 10 U/ml) was added in the presence or absence of the NOS inhibitor, the SOD mimetic of the combination of the two compounds for 24 h. Moreover, cells were exposed to the NO donor compounds S-nitroso-N-acetyl-DL-penicillamine (SNAP) (3 mM) and diethylamine:NO NONOate (DNO) (3 mM) for 24 h or to authentic peroxynitrite (1 mM) for 1 h). Nitride/nitrate concentration in the medium and mitochondrial respiration were then measured as described below.
Measurement of mitochondrial respiration: Cell respiration was assessed by the mitochondrial-dependent reduction of 3-(4,5-dimethylthiazol-2-yl)-2,5-diphenyltetrazolium bromide (MTT) to formazan. Cells in 96-well plates were incubated at 37° C. with MTT (0.2 mg/ml) for 1 hour. Culture medium was removed by aspiration and the cells were solubilized in DMSO (100 μl). The extent of reduction of MTT to formazan within cells was quantitated by the measurement of OD550. All measurements were corrected for the interference of MnTBAP at this wavelength.

## N[C@H](CCCP(=O)(O)O)C(=O)O [D-APV, reference compound]
Rat cortical cells; condition "pre", 100 μM D-APV, 100 μM NMDA 15 min.
  LDH release: complete blockade

## CC(=O)N(O)CCCCCNC(=O)CCC(=O)N(O)CCCCCNC(=O)CCC(=O)N(O)CCCCCN [Deferoxamine, deferoxamine]
Cold-induced brain edema; wild-type mice, 0.51 μmoles/g, 15 minutes prior to cold injury
  Edema Index: 3.41 ± 0.49
Cold-induced brain edema; wild-type mice
  less edema formation compared to saline treated controls: 43%

## C=C(C)[C@H]1CN[C@H](C(=O)O)[C@H]1CC(=O)O [KA, kainate]
aconitase
  decrease in aconitase activity: 42%

## N=C(N)NCCC[C@H](N)C(=O)O [L-arginine]
[1]; 20 mg/kg LNNA plus 50 mg/kg L-arginine, 6 ATA oxygen
  effect of excess L-arginine on protection by N-ω-nitro-L-arginine: could be reversed

## COC(=O)[C@@H](N)CCCNC(=N)N[N+](=O)[O-] [LNAME, N-ω-nitro-L-arginine methyl ester]
Rat cortical cells
  NMDA-induced LDH release: unchanged
aconitase
  NMDA-induced aconitase inactivation: unchanged
Cold-induced brain edema; EC-SOD transgenic mice, 20 mg/kg 15 minutes prior to cold-induced injury
  Edema Index: 4.30 ± 0.96
Cold-induced brain edema; wild-type mice, 0.02 mg/g LNAME, with or without 0.05 mg/g L-arginine
  Edema Index: 3.65 ± 0.51
Cold-induced brain edema; wild-type mice
  less edema formation compared to saline treated controls: 37%

## C[C@]12N[C@H](Cc3ccccc31)c1ccccc12 [MK801, reference compound]
Rat cortical cells; added 15 min. after 15 min. 100 μM NMDA, 200 μM MnTBAP, 10 μM MK801
  reduction of LDH release / protective effect: 17%

## NC(=NCCC[C@H](N)C(=O)O)N[N+](=O)[O-] [N-ω-nitro-L-arginine]
Rat cortical cells
  NMDA-induced LDH release: unchanged
aconitase
  NMDA-induced aconitase inactivation: unchanged
[1]; 20 mg/kg i.p., 6 ATA oxygen 75 minutes
  difference in sensitivity between transgenic and nontransgenic mice: abolished the difference in sensitivity
[1]; nontransgenic mice
  Survival: 100%
[1]; transgenic and nontransgenic mice, 20 mg/kg i.p., 6 ATA oxygen
  seizure latency: significantly delayed
[1]; transgenic mice
  Survival: 100%
[1]; wild-type mice, 20 mg/kg i.p., 6 ATA oxygen
  seizure latency: 13.50 ± 5.6 min
[1]; wild-type mice, 20 mg/kg i.p., 90 minutes of 6 ATA oxygen
  mortality: 50%
[1]; wild-type mice, 20 mg/kg i.p., 2 hours of 6 ATA oxygen
  mortality: 100%

## CN[C@H](CC(=O)O)C(=O)O [NMDA, N-methyl-D-aspartate]
aconitase
  decrease in aconitase activity: 40%

## C[n+]1ccc(-c2cc[n+](C)cc2)cc1 [PQ^++, methylviologen (paraquat)]
aconitase
  decrease in aconitase activity: 70%

## OCCS [β-mercaptoethanol]
[1]; 180 mg/kg i.p., 6 ATA oxygen 30 minutes
  protection against CNS oxygen toxicity: did not protect against CNS oxygen toxicity

B1: IFN: murine γ-interferon (protein, UniProt P01580 23-155, looked up)
Interferon gamma: HGTVIESLESLNNYFNSSGIDVEEKSLFLDIWRNWQKDGDMKILQSQIISFYLRLFEVLKDNQAISNNISVIESHLITTFFSNSKAKKDAFMSIAKFEVNNPQVQRQAFNELIRVVHQLLPESSLRKRKRSRC
J774 macrophages
  suppression of respiration: < 15%
